Test results taken from patent US10100058B2, “Fused heterocyclic compounds as CaM kinase inhibitors” (Gilead Sciences, Inc., priority 2016, dated 2018).

molecular target: recombinant CaMKIIδ (Homo sapiens (Human), UniProt Q13557); test: CaMKIIδ biochemical assay (HTRF); details: 10 pM CaMKIIδ, 110 nM calmodulin, 12 μM ATP, 1 hour; read-out: CAMKIID-HTRF-384V2 (IC50 - nM)
Experimental: CaMKIIδ Biochemical Assay
The biochemical activity of recombinant CaMKIIδ was measured by monitoring the phosphorylation of a target peptide using Homogenous Time Resolved Fluorescence (HTRF) technology from CisBio Bioassays.

Row | Structure (SMILES) | IC50
1 | CCN(CC)[C@@H](C)CNC(=O)c1cc(-c2cnn3ccc(-c4cccs4)nc23)nc(N2CC[C@H]2C(=O)N2CC(OC)C2)c1 [Example 295, N—((S)-2-(diethylamino)propyl)-2-((S)-2-(3-methoxyazetidine-1-carbonyl)azetidin-1-yl)-6-(5-(thiophen-2-yl)pyrazolo[1,5-a]pyrimidin-3-yl)isonicotinamide] | 0.25 nM
2 | CCN(CC)[C@@H](C)CNC(=O)c1cc(-c2cnn3ccc(-c4cccs4)nc23)nc(N2CC[C@H]2C(=O)NCCOC)c1 [Example 301, N—((S)-2-(diethylamino)propyl)-2-((S)-2-((2-methoxyethyl)carbamoyl)azetidin-1-yl)-6-(5-(thiophen-2-yl)pyrazolo[1,5-a]pyrimidin-3-yl)isonicotinamide] | 0.48 nM
3 | CCN(CC)[C@@H](C)CNC(=O)c1cc(-c2cnn3ccc(-c4cccs4)nc23)nc(N2CC[C@H]2C(=O)Nc2nccs2)c1 [Example 291, N—((S)-2-(diethylamino)propyl)-2-((S)-2-(thiazol-2-ylcarbamoyl)azetidin-1-yl)-6-(5-(thiophen-2-yl)pyrazolo[1,5-a]pyrimidin-3-yl)isonicotinamide] | 3.55 nM
4 | CCN(CC)[C@@H](C)CNC(=O)c1cc(OCCN2CCOCC2)nc(-c2cnn3ccc(-c4cccs4)nc23)c1 [Example 352, (S)—N-(2-(diethylamino)propyl)-2-(2-morpholinoethoxy)-6-(5-(thiophen-2-yl)pyrazolo[1,5-a]pyrimidin-3-yl)isonicotinamide] | 0.21 nM
5 | CCN(CC)[C@@H](C)CNC(=O)c1cc(-c2cnn3ccc(-c4cccs4)nc23)nc(N2CC[C@H]2C(=O)NCC(F)(F)F)c1 [Example 283, N—((S)-2-(diethylamino)propyl)-2-(5-(thiophen-2-yl)pyrazolo[1,5-a]pyrimidin-3-yl)-6-((S)-2-((2,2,2-trifluoroethyl)carbamoyl)azetidin-1-yl)isonicotinamide] | 1.37 nM
6 | CCN(CC)[C@@H](C)CNC(=O)c1cc(NCc2cc[nH]n2)nc(-c2cnn3ccc(-c4cccs4)nc23)c1 [Example 212, (S)-2-(((1H-pyrazol-3-yl)methyl)amino)-N-(2-(diethylamino)propyl)-6-(5-(thiophen-2-yl)pyrazolo[1,5-a]pyrimidin-3-yl)isonicotinamide] | 0.3 nM
7 | CC(CN)NC(=O)c1ccnc(-c2cnn3ccc(-c4ccccc4)nc23)c1 (stereo not drawn) [Example 62, N-(1-aminopropan-2-yl)-2-(5-phenylpyrazolo[1,5-a]pyrimidin-3-yl)isonicotinamide] | 216 nM
8 | C[C@@H](CNC(=O)c1ccnc(-c2cnn3ccc(-c4cccs4)nc23)c1)NCC1CC1 [Example 26, (S)—N-(2-((cyclopropylmethyl)amino)propyl)-2-(5-(thiophen-2-yl)pyrazolo[1,5-a]pyrimidin-3-yl)isonicotinamide] | 10.7 nM
9 | CCN(CC)[C@@H](C)CNC(=O)c1cc(-c2cnn3ccc(-c4cccs4)nc23)nc(N2CCC2)c1 [Example 146, (S)-2-(azetidin-1-yl)-N-(2-(diethylamino)propyl)-6-(5-(thiophen-2-yl)pyrazolo[1,5-a]pyrimidin-3-yl)isonicotinamide] | 0.19 nM
10 | CCN(CC)[C@@H](C)CNC(=O)c1cc(NC2CCOCC2)nc(-c2cnn3ccc(-c4cccs4)nc23)c1 [Example 222, (S)—N-(2-(diethylamino)propyl)-2-((tetrahydro-2H-pyran-4-yl)amino)-6-(5-(thiophen-2-yl)pyrazolo[1,5-a]pyrimidin-3-yl)isonicotinamide] | 0.17 nM
11 | Cc1cc(C(=O)N2CCCC[C@@H]2CN)cc(-c2cnn3ccc(-c4ccccc4)nc23)n1 [Example 115, (R)-(2-(aminomethyl)piperidin-1-yl)(2-methyl-6-(5-phenylpyrazolo[1,5-a]pyrimidin-3-yl)pyridin-4-yl)methanone] | 1.41 nM
12 | O=C(c1ccnc(-c2cnn3ccc(-c4ccccc4)nc23)c1)N1CCC2CCNCC21 (stereo not drawn) [Example 95, (octahydro-1H-pyrrolo[2,3-c]pyridin-1-yl)(2-(5-phenylpyrazolo[1,5-a]pyrimidin-3-yl)pyridin-4-yl)methanone] | 390 nM
13 | C[C@H](N)CNC(=O)c1cc(-c2cnn3ccc(-c4cccs4)nc23)nc(N2CC(O)C2)c1 [Example 168, (S)—N-(2-aminopropyl)-2-(3-hydroxyazetidin-1-yl)-6-(5-(thiophen-2-yl)pyrazolo[1,5-a]pyrimidin-3-yl)isonicotinamide] | 18.1 nM
14 | CCN(CC)[C@@H](C)CNC(=O)c1cc(-c2cnn3ccc(-c4cccs4)nc23)nc(N2CCNCC2)c1 [Example 207, (S)—N-(2-(diethylamino)propyl)-2-(piperazin-1-yl)-6-(5-(thiophen-2-yl)pyrazolo[1,5-a]pyrimidin-3-yl)isonicotinamide] | 0.21 nM
15 | COC1CN(c2cc(C(=O)NC[C@@H]3CCCN3C)cc(-c3cnn4ccc(-c5cccs5)nc34)n2)C1 [Example 257, (S)-2-(3-methoxyazetidin-1-yl)-N-((1-methylpyrrolidin-2-yl)methyl)-6-(5-(thiophen-2-yl)pyrazolo[1,5-a]pyrimidin-3-yl)isonicotinamide] | 284 nM
16 | Cc1cc(C(=O)N2CCC[C@@H]2CN)cc(-c2cnn3ccc(-c4ccccc4)nc23)n1 [Example 131, (R)-(2-(aminomethyl)pyrrolidin-1-yl)(2-methyl-6-(5-phenylpyrazolo[1,5-a]pyrimidin-3-yl)pyridin-4-yl)methanone] | 56.1 nM
17 | O=C(c1ccnc(-c2cnn3ccc(-c4cccs4)nc23)c1)N1C2CCNCC1CC2 (stereo not drawn) [Example 82] | 6.14 nM
18 | CCN(CC)[C@@H](C)CNC(=O)c1cc(NCCN2CC(F)(F)C2)nc(-c2cnn3ccc(-c4cccs4)nc23)c1 [Example 224, (S)—N-(2-(diethylamino)propyl)-2-((2-(3,3-difluoroazetidin-1-yl)ethyl)amino)-6-(5-(thiophen-2-yl)pyrazolo[1,5-a]pyrimidin-3-yl)isonicotinamide] | 0.21 nM
19 | CCN(CC)[C@@H](C)CNC(=O)c1cc(-c2cnn3ccc(-c4ccncc4)nc23)nc(N2CC(OC)C2)c1 [Example 262, (S)—N-(2-(diethylamino)propyl)-2-(3-methoxyazetidin-1-yl)-6-(5-(pyridin-4-yl)pyrazolo[1,5-a]pyrimidin-3-yl)isonicotinamide] | 6.97 nM
20 | COC1CN(c2cc(C(=O)N3[C@H]4CCNC[C@@H]3CC4)cc(-c3cnn4ccc(-c5cccs5)nc34)n2)C1 [Example 326, ((1S,6R)-3,9-diazabicyclo[4.2.1]nonan-9-yl)(2-(3-methoxyazetidin-1-yl)-6-(5-(thiophen-2-yl)pyrazolo[1,5-a]pyrimidin-3-yl)pyridin-4-yl)methanone] | 3.29 nM
21 | CCN(CC)[C@@H](C)CNC(=O)c1cc(-c2cnn3ccc(-c4cccs4)nc23)nc(N2CC[C@H]2CO)c1 [Example 268, N—((S)-2-(diethylamino)propyl)-2-((S)-2-(hydroxymethyl)azetidin-1-yl)-6-(5-(thiophen-2-yl)pyrazolo[1,5-a]pyrimidin-3-yl)isonicotinamide] | 0.06 nM
22 | CC(C)(O)CNc1cc(C(=O)N2CC3CCC(C2)NC3)cc(-c2cnn3ccc(-c4cccs4)nc23)n1 (stereo not drawn) [Example 322, (-3,6-diazabicyclo[3.2.2]nonan-3-yl)(2-((2-hydroxy-2-methylpropyl)amino)-6-(5-(thiophen-2-yl)pyrazolo[1,5-a]pyrimidin-3-yl)pyridin-4-yl)methanone] | 5.01 nM
23 | CCOC1CN(c2cc(C(=O)NC[C@H](C)N(CC)CC)cc(-c3cnn4ccc(-c5cccs5)nc34)n2)C1 [Example 143, (S)—N-(2-(diethylamino)propyl)-2-(3-ethoxyazetidin-1-yl)-6-(5-(thiophen-2-yl)pyrazolo[1,5-a]pyrimidin-3-yl)isonicotinamide] | 0.17 nM
24 | CNc1cnc(-c2cnn3ccc(-c4ccccc4)nc23)cc1C(=O)N1CCCC[C@@H]1CN [Example 139, (R)-(2-(aminomethyl)piperidin-1-yl)(5-(methylamino)-2-(5-phenylpyrazolo[1,5-a]pyrimidin-3-yl)pyridin-4-yl)methanone] | 0.87 nM
25 | CCN(CC)[C@@H](C)CNC(=O)c1cc(-c2cnn3ccc(-c4cccs4)nc23)nc(N2CC(O)(C3CC3)C2)c1 [Example 217, (S)-2-(3-cyclopropyl-3-hydroxyazetidin-1-yl)-N-(2-(diethylamino)propyl)-6-(5-(thiophen-2-yl)pyrazolo[1,5-a]pyrimidin-3-yl)isonicotinamide] | 0.18 nM
26 | Cc1cnc(-c2cnn3ccc(-c4ccccc4)nc23)cc1C(=O)N1CCCC[C@@H]1[C@@H](C)N [Example 140, ((R)-2-((R)-1-aminoethyl)piperidin-1-yl)(5-methyl-2-(5-phenylpyrazolo[1,5-a]pyrimidin-3-yl)pyridin-4-yl)methanone] | 1.91 nM
27 | CCN(CC)[C@@H](C)CNC(=O)c1cc(-c2cnn3ccc(-c4cccs4)nc23)nc(N2CCNC2=O)c1 [Example 184, (S)—N-(2-(diethylamino)propyl)-2-(2-oxoimidazolidin-1-yl)-6-(5-(thiophen-2-yl)pyrazolo[1,5-a]pyrimidin-3-yl)isonicotinamide] | 1.16 nM
28 | N[C@@H]1CCC[C@@H]2CCCN(C(=O)c3ccnc(-c4cnn5ccc(-c6cccs6)nc45)c3)[C@@H]21 [Example 86, ((4aR,8R,8aS)-8-aminooctahydroquinolin-1(2H)-yl)(2-(5-(thiophen-2-yl)pyrazolo[1,5-a]pyrimidin-3-yl)pyridin-4-yl)methanone] | 0.99 nM
29 | CC[C@@]1(CNC(=O)c2ccnc(-c3cnn4ccc(-c5ccccc5)nc34)c2)CCCN1 [Example 75, (S)—N-((2-ethylpyrrolidin-2-yl)methyl)-2-(5-phenylpyrazolo[1,5-a]pyrimidin-3-yl)isonicotinamide] | 39.3 nM
30 | CCN1CCC[C@H]1CNC(=O)c1cc(-c2cnn3ccc(-c4cccs4)nc23)nc(N2CC(OC)C2)c1 [Example 256, (S)—N-((1-ethylpyrrolidin-2-yl)methyl)-2-(3-methoxyazetidin-1-yl)-6-(5-(thiophen-2-yl)pyrazolo[1,5-a]pyrimidin-3-yl)isonicotinamide] | 2.42 nM
